Reference: paper PMC11243320, “Tailoring Fibroblast-Activation Protein Targeting for Theranostics: A Comparative Preclinical Evaluation of the ^68Ga- and ^177Lu-Labeled Monomeric and Dimeric Fibroblast-Activation Protein Inhibitors DOTA.SA.FAPi and DOTAGA.(SA.FAPi)2” (Molecules, 2024)

System: CAFs
Experiment: Externalization studies in CAFs
Format: cell-based, human
Settings: after 24 h at 37 °C
Description: For saturation studies, CAFs were incubated with increasing concentrations of the radiotracers (0.1–10 nM). For internalization studies, approximately 2.5 pmol of the radiotracers were added to CAFs followed by incubation for 15, 30, 60, 90, 120, 180 and 240 min for the ^68Ga-labeled or 30, 60, 120, 240 and 360 min for the ^177Lu-labeled radiotracers at 37 °C, 5% CO2. For the externalization studies, approximately 2.5 pmol of the ^177Lu-labeled radiotracers were added to CAFs followed by incubation for 2 h at 37 °C, 5% CO2. Afterward, the amount of the externalized activity from the CAFs was determined at 0, 10, 20, 30, 60, 120, 240, and 1440 min (Supplemental Data).
Saturation Binding Studies […]
At each time point, the internalization was stopped by putting the plates on ice, removing the me-dium, and washing the cells twice with ice-cold PBS. […] The radioactivity of the culture medium, the receptor bound, and the internal-ized fractions were measured in a γ-counter.
The externalization rate of [177Lu]Lu-DOTA.SA.FAPi and [177Lu]Lu-DOTAGA.(SA.FAPi)2 was studied af-ter CAFs were incubated for 2 h with 2.5 pmol/well of each 177Lu-lebeled radioligand. […] The radioactivity of the culture medium, the receptor bound , the internalized and the externalized fractions were measured in a γ -counter. […]

SMILES: N#C[C@@H]1CC(F)(F)CN1C(=O)CNC(=O)c1ccnc2ccc(OCCCCNc3c(NCCNC(=O)CN4CCN(CC(=O)[O-])CCN(CC(=O)[O-])CCN(CC(=O)[O-])CC4)c(=O)c3=O)cc12.[177Lu+3] [[^177Lu]Lu-DOTA.SA.FAPi]
- Total internalized activity released from the CAFs into the medium: more than 93%
- Total internalized activity remaining in the CAFs: 7%
